Results on 16 compounds are retold here after patent US12600717B2, “Tricyclic compounds as inhibitors of KRAS” (Incyte Corporation, priority 2021, dated 2026).

The target in one assay is KRAS G12V (Homo sapiens, UniProt P01116, G12V). As to the kind of experiment: GDP-GTP exchange assay (bodipy-GDP/GppNHp, SOS1), KRAS G12V. The format is biochemical. Particulars: bodipy-loaded KRAS G12V 2.5 nM, 3 hours incubation after adding GppNHp-SOS1; read-out: G12V_exchange IC50. How it is done:
(§1) The inhibitor potency of the exemplified compounds was determined in a fluorescence based guanine nucleotide exchange assay, which measures the exchange of bodipy-GDP (fluorescently labeled GDP) for GppNHp (Non-hydrolyzable GTP analog) to generate the active state of KRAS in the presence of SOS1 (guanine nucleotide exchange factor). Inhibitors were serially diluted in DMSO and a volume of 0.1 μL was transferred to the wells of a black low volume 384-well plate. 5 μL/well volume of bodipy-loaded KRAS G12D diluted to 2.5 nM in assay buffer (25 mM Hepes pH 7.5, 50 mM NaCl, 10 mM MgCl2 and 0.01% Brij-35) was added to the plate and pre-incubated with inhibitor for 4 hours at ambient temperature. Appropriate controls (enzyme with no inhibitor or with a G12D inhibitor) were included on the plate. The exchange was initiated by the addition of a 5 μL/well volume containing 1 mM GppNHp and 300 nM SOS1 in assay buffer. The 10 μL/well reaction concentration of the bodipy-loaded KRAS G12D, GppNHp, and SOS1 were 2.5 nM, 500 uM, and 150 nM, respectively. The reaction plates were incubated at ambient temperature for 2 hours, a time estimated for complete GDP-GTP exchange in the absence of inhibitor. For the KRAS G12V mutant, similar guanine nucleotide exchange assays were used with 2.5 nM as final concentration for the bodipy loaded KRAS proteins and 3 hours incubation after adding GppNHp-SOS1 mixture. A cyclic peptide described to selectively bind G12D mutant (Sakamoto et al., BBRC 484.3 (2017), 605-611) or internal compounds with confirmed binding were used as positive controls in the assay plates. Fluorescence intensities were measured on a PheraStar plate reader instrument (BMG Labtech) with excitation at 485 nm and emission at 520 nm.
(§2) Either GraphPad prism or Genedata Screener SmartFit was used to analyze the data. The IC50 values were derived by fitting the data to a four parameter logistic equation producing a sigmoidal dose-response curve with a variable Hill coefficient.
(§3) The symbol “†” indicates IC50≤100 nM, “††” indicates IC50>100 nM but ≤1 μM; and “†††” indicates IC50 is >1 μM but ≤5 μM, “††††” indicates IC50 is >5 μM but ≤10 μM. “NA” indicates IC50 not available.

The next assay concerns the target KRAS G12D (Homo sapiens, UniProt P01116, G12D). In words: GDP-GTP exchange assay (bodipy-GDP/GppNHp, SOS1), KRAS G12D. The format is biochemical. Particulars: bodipy-loaded KRAS G12D 2.5 nM, 4 hours pre-incubation with inhibitor, 2 hours after GppNHp/SOS1; read-out: G12D_exchange IC50. How it is done:
as §1, §2, §3

KRAS G12V, sequence (P01116 1-188 isoform P01116-2 G12V): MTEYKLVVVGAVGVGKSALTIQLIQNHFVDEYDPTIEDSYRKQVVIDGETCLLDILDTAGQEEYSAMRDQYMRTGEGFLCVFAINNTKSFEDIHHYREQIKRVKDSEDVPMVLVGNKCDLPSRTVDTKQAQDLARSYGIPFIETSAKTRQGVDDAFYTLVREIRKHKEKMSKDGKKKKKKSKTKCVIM
KRAS G12D, sequence (P01116 1-188 isoform P01116-2 G12D): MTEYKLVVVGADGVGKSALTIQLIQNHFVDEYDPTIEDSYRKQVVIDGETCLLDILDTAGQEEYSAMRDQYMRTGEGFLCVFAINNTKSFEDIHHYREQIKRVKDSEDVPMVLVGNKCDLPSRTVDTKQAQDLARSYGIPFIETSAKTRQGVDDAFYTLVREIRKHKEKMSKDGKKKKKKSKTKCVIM

Regarding `CCc1nc2c(N3CC(N(C)C)C3)nc3c(F)c(-c4cc(O)cc5ccccc45)c(C(CC#N)n4cc(CO)cn4)cc3c2n1C1C2CNC1C2` (single isomer, unassigned) [Example 8b, 3-(1-((endo)-2-azabicyclo[2.1.1]hexan-5-yl)-4-(3-(dimethylamino)azetidin-1-yl)-2-ethyl-6-fluoro-7-(3-hydroxynaphthalen-1-yl)-1H-imidazo[4,5-c]quinolin-8-yl)-3-(4-(hydroxymethyl)-1H-pyrazol-1-yl)propanenitrile], the IC50 on KRAS G12V is 100 to 1000 nM; on KRAS G12D, at most 100 nM.

Regarding `CCc1nc2c(-c3ccc(=O)n(CC)c3)nc3c(F)c(-c4cc(O)cc5ccccc45)c(CCC#N)cc3c2n1C1C2CNC1C2` (single isomer, unassigned) [Example 18, 3-(1-((endo)-2-Azabicyclo[2.1.1]hexan-5-yl)-2-ethyl-4-(1-ethyl-6-oxo-1,6-dihydropyridin-3-yl)-6-fluoro-7-(3-hydroxynaphthalen-1-yl)-1H-imidazo[4,5-c]quinolin-8-yl)propanenitrile], the IC50 on KRAS G12V and at KRAS G12D was at most 100 nM throughout.

For the compound `CCc1nc2c(-c3ccc(C(=O)NC)nc3)nc3c(F)c(-c4cc(O)cc5ccccc45)c(CCC#N)cc3c2n1C1C2CNC1C2` (single isomer, unassigned) [Example 19a, 5-(1-((endo)-2-Azabicyclo[2.1.1]hexan-5-yl)-8-(2-cyanoethyl)-2-ethyl-6-fluoro-7-(3-hydroxynaphthalen-1-yl)-1H-imidazo[4,5-c]quinolin-4-yl)-N-methylpicolinamide], the IC50 at KRAS G12V and on KRAS G12D was at most 100 nM each time.

Take `CCc1nc2c(-c3ncco3)nc3c(F)c(-c4cc(O)cc5ccccc45)c(CCC#N)cc3c2n1C1C2CNC1C2` (single isomer, unassigned) [Example 20a, 3-(1-((endo)-2-Azabicyclo[2.1.1]hexan-5-yl)-2-ethyl-6-fluoro-7-(3-hydroxynaphthalen-1-yl)-4-(oxazol-2-yl)-1H-imidazo[4,5-c]quinolin-8-yl)propanenitrile]: the half-inhibitory concentration (IC50) is 100 to 1000 nM on KRAS G12V and at most 100 nM at KRAS G12D.

In the case of `CCc1nc2c(-c3ccn4ncnc4c3)nc3c(F)c(-c4cc(O)cc5ccccc45)c(CCC#N)cc3c2n1C1C2CNC1C2` (single isomer, unassigned) [Example 21a, 3-(4-([1,2,4]Triazolo[1,5-a]pyridin-7-yl)-1-((endo)-2-azabicyclo[2.1.1]hexan-5-yl)-2-ethyl-6-fluoro-7-(3-hydroxynaphthalen-1-yl)-1H-imidazo[4,5-c]quinolin-8-yl)propanenitrile], the IC50 on KRAS G12V and on KRAS G12D was at most 100 nM each time.

For `CCc1nc2c(-c3ccnc(N4CCN(C)CC4)c3)nc3c(F)c(-c4cc(O)cc5ccccc45)c(CCC#N)cc3c2n1C1C2CNC1C2` (single isomer, unassigned) [Example 22a, 3-(1-((endo)-2-Azabicyclo[2.1.1]hexan-5-yl)-2-ethyl-6-fluoro-7-(3-hydroxynaphthalen-1-yl)-4-(2-(4-methylpiperazin-1-yl)pyridin-4-yl)-1H-imidazo[4,5-c]quinolin-8-yl)propanenitrile], the results for the IC50 on KRAS G12V and at KRAS G12D were 100 to 1000 nM and at most 100 nM, respectively.

Turning to `CCc1nc2c(C)nc3c(F)c(-c4cc(O)cc5ccccc45)c(CCC#N)cc3c2n1C1C2CNC1C2` (single isomer, unassigned) [Example 23a, 3-(1-((endo)-2-Azabicyclo[2.1.1]hexan-5-yl)-2-ethyl-6-fluoro-7-(3-hydroxynaphthalen-1-yl)-4-methyl-1H-imidazo[4,5-c]quinolin-8-yl)propanenitrile], the IC50 at KRAS G12V and on KRAS G12D was at most 100 nM throughout.

Consider `CCc1nc2c(Oc3ccccc3)nc3c(F)c(-c4cc(O)cc5ccccc45)c(CCC#N)cc3c2n1C1C2CNC1C2` (single isomer, unassigned) [Example 24a, 3-(1-((endo)-2-Azabicyclo[2.1.1]hexan-5-yl)-2-ethyl-6-fluoro-7-(3-hydroxynaphthalen-1-yl)-4-phenoxy-1H-imidazo[4,5-c]quinolin-8-yl)propanenitrile], for which the figures for the IC50 at KRAS G12V and on KRAS G12D were 100 to 1000 nM and at most 100 nM, respectively.

Take `CN(C)C1CN(c2nc3c(F)c(-c4cc(O)cc5ccccc45)c(CCC#N)cc3c3c2nc(C2CC2)n3C2C3CNC2C3)C1` (single isomer, unassigned) [Example 25a, 3-(1-((endo)-2-Azabicyclo[2.1.1]hexan-5-yl)-2-cyclopropyl-4-(3-(dimethylamino)azetidin-1-yl)-6-fluoro-7-(3-hydroxynaphthalen-1-yl)-1H-imidazo[4,5-c]quinolin-8-yl)propanenitrile]: the IC50 at KRAS G12V was 100 to 1000 nM; on KRAS G12D, at most 100 nM.

`CN(C)C1CN(c2nc3c(F)c(-c4cc(O)cc5ccccc45)c(CCC#N)cc3c3c2nc(-c2cn(C4CCNCC4)nn2)n3C2C3CNC2C3)C1` (single isomer, unassigned) [Example 26a, 3-(1-((endo)-2-Azabicyclo[2.1.1]hexan-5-yl)-4-(3-(dimethylamino)azetidin-1-yl)-6-fluoro-7-(3-hydroxynaphthalen-1-yl)-2-(1-(piperidin-4-yl)-1H-1,2,3-triazol-4-yl)-1H-imidazo[4,5-c]quinolin-8-yl)propanenitrile]: the IC50 at KRAS G12V and on KRAS G12D was at most 100 nM throughout.

With `CN1CCC[C@H]1COc1nc2c(F)c(-c3cc(O)cc4ccccc34)c(CCC#N)cc2c2c1nc(-c1cn(C3CCC3)nn1)n2C1C2CNC1C2` (single isomer, unassigned) [Example 27a], the IC50 on KRAS G12V and on KRAS G12D was at most 100 nM each time.

As for `CN(C)C(=O)CCc1nc2c(N3CC(N(C)C)C3)nc3c(F)c(-c4nc(N)cc5ccccc45)c(CCC#N)cc3c2n1C1C2CNC1C2` (single isomer, unassigned) [Example 31a, 3-(7-(3-aminoisoquinolin-1-yl)-1-endo-(2-azabicyclo[2.1.1]hexan-5-yl)-8-(2-cyanoethyl)-4-(3-(dimethylamino)azetidin-1-yl)-6-fluoro-1H-imidazo[4,5-c]quinolin-2-yl)-N,N-dimethylpropanamide], the values for the IC50 at KRAS G12V and on KRAS G12D were 5000 to 10000 nM and 100 to 1000 nM, respectively.

`CN(C)C(=O)CCc1nc2c(N3CC(N(C)C)C3)nc3c(F)c(-c4nc(N)ccc4C(F)(F)F)c(CCC#N)cc3c2n1C1C2CNC1C2` (single isomer, unassigned) [Example 32a, 3-(7-(6-amino-3-(trifluoromethyl)pyridin-2-yl)-1-endo-(2-azabicyclo[2.1.1]hexan-5-yl)-8-(2-cyanoethyl)-4-(3-(dimethylamino)azetidin-1-yl)-6-fluoro-1H-imidazo[4,5-c]quinolin-2-yl)-N,N-dimethylpropanamide]: the IC50 at KRAS G12V was in the range of 5000 to 10000 nM; on KRAS G12D, 100 to 1000 nM.

Take `CN(C)C1CN(c2nc3c(F)c(-c4cc(O)cc5ccccc45)c(CCC#N)cc3c3c2nc(-c2ccn(-c4ccccc4)n2)n3C2C3CNC2C3)C1` (single isomer, unassigned) [Example 34a, 3-(1-((endo)-2-azabicyclo[2.1.1]hexan-5-yl)-4-(3-(dimethylamino)azetidin-1-yl)-6-fluoro-7-(3-hydroxynaphthalen-1-yl)-2-(1-phenyl-1H-pyrazol-3-yl)-1H-imidazo[4,5-c]quinolin-8-yl)propanenitrile]: the IC50 at KRAS G12V and at KRAS G12D was at most 100 nM throughout.

Regarding `CCn1ccc(-c2nc3c(N4CC(N(C)C)C4)nc4c(F)c(-c5cc(O)cc6ccccc56)c(CCC#N)cc4c3n2C2C3CNC2C3)n1` (single isomer, unassigned) [Example 35a, 3-(1-((endo)-2-azabicyclo[2.1.1]hexan-5-yl)-4-(3-(dimethylamino)azetidin-1-yl)-2-(1-ethyl-1H-pyrazol-3-yl)-6-fluoro-7-(3-hydroxynaphthalen-1-yl)-1H-imidazo[4,5-c]quinolin-8-yl)propanenitrile], the IC50 on KRAS G12V and on KRAS G12D was at most 100 nM each time.

In the case of `CN(C)C1CN(c2nc3c(F)c(-c4cc(O)cc5ccccc45)c(CCC#N)cc3c3c2nc(-c2ccn(Cc4ccccc4)n2)n3C2C3CNC2C3)C1` (single isomer, unassigned) [Example 36a, 3-(2-(1-benzyl-1H-pyrazol-3-yl)-1-((endo)-2-azabicyclo[2.1.1]hexan-5-yl)-4-(3-(dimethylamino)azetidin-1-yl)-6-fluoro-7-(3-hydroxynaphthalen-1-yl)-1H-imidazo[4,5-c]quinolin-8-yl)propanenitrile], the IC50 was at most 100 nM on KRAS G12V and 100 to 1000 nM at KRAS G12D.
